The results in this text go back to US20230002375A1, “HYDROPYRAZINO[1,2-B]ISOQUINOLINE COMPOUNDS FOR THE TREATMENT OF AUTOIMMUNE DISEASE” (Hoffmann-La Roche Inc., priority 2019, published 2023).

The data set concerns the target T1, hERG K+ channel (Homo sapiens, UniProt Q12809).
T1 construct: expressed in transfected cells; host or cells: CHO (Chinese hamster ovary) cells, CHOhERG
The experiment in a line: hERG channel inhibition assay (patch-clamp, CHOhERG cells). Format: cell-based. Particulars: whole-cell patch-clamp; for IC20: human, CHO cells stably expressing hERG. The method, then:
hERG Channel Inhibition Assay
The hERG K^+ channels were cloned in humans and stably expressed in a CHO (Chinese hamster ovary) cell line. CHOhERG cells were used for patch-clamp (voltage-clamp, whole-cell) experiments. Cells were stimulated by a voltage pattern to activate hERG channels and conduct IKhERG Currents (rapid delayed outward rectifier potassium current of the hERG channel). After the cells were stabilized for a few minutes, the amplitude and kinetics of IKhERG were recorded at a stimulation frequency of 0.1 Hz (6 bpm). Thereafter, the test compound was added to the preparation at increasing concentrations. For each concentration, an attempt was made to reach a steady-state effect, usually, this was achieved within 3-10 min at which time the next highest concentration was applied. The amplitude and kinetics of IKhERG are recorded in each concentration of the drug which were compared to the control values (taken as 100%). (references: Redfern W S, Carlsson L, Davis A S, Lynch W G, MacKenzie I, Palethorpe S, Siegl P K, Strang I, Sullivan A T, Wallis R, Camm A J, Hammond T G. 2003; Relationships between preclinical cardiac electrophysiology, clinical QT interval prolongation and torsade de pointes for a broad range of drugs: evidence for a provisional safety margin in drug development. Cardiovasc. Res. 58:32-45, Sanguinetti M C, Tristani-Firouzi M. 2006; hERG potassium channels and cardiac arrhythmia. Nature 440:463-469, Webster R, Leishman D, Walker D. 2002; Towards a drug concentration effect relationship for QT prolongation and torsades de pointes. Curr. Opin. Drug Discov. Devel. 5:116-26).
(In general: Block of hERG is tested as a sign of cardiac risk.)

T1 sequence (Q12809 whole entry): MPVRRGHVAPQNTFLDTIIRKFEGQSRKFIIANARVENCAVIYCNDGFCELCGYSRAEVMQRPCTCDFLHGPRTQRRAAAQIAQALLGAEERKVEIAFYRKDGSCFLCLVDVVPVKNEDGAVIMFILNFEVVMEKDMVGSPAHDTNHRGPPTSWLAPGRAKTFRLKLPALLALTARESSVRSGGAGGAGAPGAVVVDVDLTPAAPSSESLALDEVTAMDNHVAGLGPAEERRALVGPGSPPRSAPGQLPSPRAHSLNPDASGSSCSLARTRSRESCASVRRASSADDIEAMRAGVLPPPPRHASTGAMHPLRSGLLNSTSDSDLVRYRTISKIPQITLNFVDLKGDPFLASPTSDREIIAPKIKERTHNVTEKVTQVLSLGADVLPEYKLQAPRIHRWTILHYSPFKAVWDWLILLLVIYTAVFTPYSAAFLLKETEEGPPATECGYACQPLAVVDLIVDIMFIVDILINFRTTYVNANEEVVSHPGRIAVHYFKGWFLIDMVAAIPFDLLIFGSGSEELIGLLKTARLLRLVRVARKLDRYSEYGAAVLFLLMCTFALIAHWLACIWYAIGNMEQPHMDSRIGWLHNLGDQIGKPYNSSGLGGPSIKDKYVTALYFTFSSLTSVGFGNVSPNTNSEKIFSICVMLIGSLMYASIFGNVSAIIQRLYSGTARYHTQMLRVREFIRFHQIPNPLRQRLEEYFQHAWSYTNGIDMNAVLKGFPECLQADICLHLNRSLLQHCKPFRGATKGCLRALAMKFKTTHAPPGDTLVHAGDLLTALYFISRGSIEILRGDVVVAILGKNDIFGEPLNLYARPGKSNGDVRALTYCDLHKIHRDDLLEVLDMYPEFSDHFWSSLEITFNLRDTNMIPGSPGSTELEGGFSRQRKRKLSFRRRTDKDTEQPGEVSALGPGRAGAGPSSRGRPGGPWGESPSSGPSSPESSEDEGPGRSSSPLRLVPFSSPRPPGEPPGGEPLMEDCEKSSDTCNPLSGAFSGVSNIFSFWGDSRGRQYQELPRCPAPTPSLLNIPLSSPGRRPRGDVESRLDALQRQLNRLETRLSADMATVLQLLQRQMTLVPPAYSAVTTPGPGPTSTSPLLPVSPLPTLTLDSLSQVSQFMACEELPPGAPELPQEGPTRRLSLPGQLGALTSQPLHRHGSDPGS

The IC20 is the concentration needed for an effect of 20%. High values mean weaker potency, low ones greater potency. The term IC50 denotes the concentration needed to halve the response being measured. A higher IC50 goes with lower potency. Turning to `C[C@@H]1CN(c2ccc(C#N)c3ncccc23)C[C@@H]2Cc3cc(N4C[C@@H]5CNCCN5C4=O)ccc3CN21` (single isomer, unassigned) [Example 17A], the IC20 is above 10 µM and the IC50 is above 20 µM.

For `C[C@@H]1CN(c2ccc(C#N)c3ncccc23)C[C@@H]2Cc3cc(N[C@@H]4CNC[C@@H]4F)ccc3CN21` [Example 6, 5-[(4R,11aS)-4-methyl-9-[[(3R,4S)-4-fluoropyrrolidin-3-yl]amino]-1,3,4,6,11,11a-hexahydropyrazino[1,2-b]isoquinolin-2-yl]quinoline-8-carbonitrile], the IC20 was above 10 µM and the IC50 is above 20 µM.

On to `C[C@@H]1CN(c2ccc(C#N)c3ncccc23)C[C@@H]2Cc3cc(OC[C@@H]4CCN4)ccc3CN21` [Example 12, 5-[(4R,11aS)-9-[[(2S)-azetidin-2-yl]methoxy]-4-methyl-1,3,4,6,11,11a-hexahydropyrazino[1,2-b]isoquinolin-2-yl]quinoline-8-carbonitrile], for which it took 8.2 µM to reach the 20% level (IC20) and the IC50 is above 20 µM.
